Positions of bridges follow the written chain, without caps; N, C: chain ends. Residues, ends and D or L forms follow the SMILES beside them. No end group written: not given here.
How the values were obtained:
N. farcinica ATCC 3318 = assay: Colony forming unit (CFU) assay against N. farcinica; format: cell-based, Nocardia farcinica; conditions: for LD90: lowest concentration leading to 90% reduction of CFU, 1 × 10^7 CFU/ml in 10 mM sodium phosphate buffer pH 7.4 + 1% MHB, means of at least four (levofloxacin, HNP 1-3, LL-37, hBD-3) or two (indolicidin, LAP, TAP) independent experiments
Experimental: (§1) Four strains of the genus Nocardia were investigated: Nocardia farcinica (ATCC 3318), Nocardia nova (ATCC 33726), Nocardia asteroides (ATCC 19247) and Nocardia brasiliensis (ATCC 19296). Strains were grown on Columbia blood agar for at least 72 hours at 37°C. Then 30 ml of Mueller-Hinton-broth (MHB) supplemented with 1% Tween 80 (Serva, Heidelberg, Germany) was inoculated with one loop of bacteria scraped off the agar plates. MHB was incubated in a shake incubator (220 rpm at 37°C). 10 ml of the culture was transferred to a 50 ml tube which contained 1 mm glass beads (BioSpec Products, Bartlesville, USA). After vortexing for 10-15 seconds a homogenous suspension could be gained. A few millilitres of the suspension were used to inoculate another 50 ml of MHB (also supplemented with 1% Tween 80). Cultures were incubated until mid-logarithmic phase was reached. Incubation times were different for each Nocardia species (N. farcinica 12 h, N. nova 24 h, N. asteroides 16 h, N. brasiliensis 72 h).
(§2) A colony forming unit (CFU) assay was established and performed to test AMP susceptibility. Mid-logarithmic growth phase cultures were washed twice in 10 mM sodium phosphate buffer (ph 7.4). A standard inoculum of 1 × 10^7CFU/ml in 10 mM sodium phosphate buffer supplemented with 1% MHB was prepared. 80 μl of the standard inoculum were incubated with 20 μl of the respective concentrations of the antimicrobial agents in the shake incubator at 37°C for 12 h (N. farcinica) to 16 h (N. nova, N. asteroides and N. brasiliensis). Incubation was carried out in 2 ml tubes (Eppendorf, Hamburg, Germany) which were occluded by LidBacs (Eppendorf, Hamburg, Germany) to avoid contamination and provide constant aerobic conditions. After incubation serial dilutions were plated on Mueller-Hinton agar plates and visible colonies were counted after 48-72 hours of incubation at 37°C. Killing was expressed in percentage of bacteria that were killed by incubation with respective peptide concentrations compared to incubation with solvent of the antibacterial substance (0,01% acetic acid or water). LD90 denotes the lowest peptide concentration leading to a =90% reduction of CFU counts. […] Killing activity (CFU counts after incubation with solvent vs. CFU counts after incubation with highest concentration of AMPs or levofloxacin) was analysed by Student's t-test. A p-value < 0.05 was considered significant.

N. asteroides ATCC 19247 = assay: Colony forming unit (CFU) assay against N. asteroides; format: cell-based, Nocardia asteroides; conditions: for antinocardial activity (in words): CFU assay; for LD90: lowest concentration leading to 90% reduction of CFU, 1 × 10^7 CFU/ml in 10 mM sodium phosphate buffer pH 7.4 + 1% MHB, means of at least four or two (indolicidin) independent experiments
Experimental: as §1, §2

[1] = tested on: N. brasiliensis ATCC 19296; assay: Colony forming unit (CFU) assay against N. brasiliensis; format: cell-based, Nocardia brasiliensis; conditions: for antinocardial activity (in words) / growth of N. brasiliensis after incubation (in words): CFU assay; for antinocardial activity (in words): concentrations up to 64 μg/ml; for LD90: lowest concentration leading to 90% reduction of CFU, 1 × 10^7 CFU/ml in 10 mM sodium phosphate buffer pH 7.4 + 1% MHB, means of at least four or two (indolicidin, LAP, TAP) independent experiments; for growth of N. brasiliensis after incubation (in words): data not shown
Experimental: as §1, §2

N. nova ATCC 33726 = assay: Colony forming unit (CFU) assay against N. nova; format: cell-based, Nocardia nova; conditions: for antinocardial activity (in words): CFU assay; for antinocardial activity (in words) / LD90: 16 h; for LD90: lowest concentration leading to 90% reduction of CFU, 1 × 10^7 CFU/ml in 10 mM sodium phosphate buffer pH 7.4 + 1% MHB, 37°C, means of at least four or two (indolicidin) independent experiments; for killing/CFU reduction in percent ± SD: ATCC 33726, 16 h
Experimental: as §1, §2

[2] = at the LD90 concentration, 12 h, 37°C, mean ± SD of at least four or two (indolicidin, LAP, TAP) independent experiments
[3] = at the LD90 concentration, 16 h, 37°C, mean ± SD of at least four or two (indolicidin) independent experiments

Compound	antinocardial activity (in words) (N. farcinica ATCC 3318; CFU assay, 12 h)	killing/CFU reduction in percent ± SD (N. farcinica ATCC 3318; [2])	LD90 (N. farcinica ATCC 3318; 37°C, 12 h)	antinocardial activity (in words) (N. asteroides ATCC 19247; 16 h)	killing/CFU reduction in percent ± SD (N. asteroides ATCC 19247; [3])	LD90 (N. asteroides ATCC 19247; 37°C, 16 h)	antinocardial activity (in words) ([1]; 16 h)	killing/CFU reduction in percent ± SD [1, 3]	LD90 ([1]; 37°C, 16 h)	antinocardial activity (in words) (N. nova ATCC 33726)	LD90 (N. nova ATCC 33726)	killing/CFU reduction in percent ± SD (N. farcinica ATCC 3318; ATCC 3318, 12 h)	killing/CFU reduction in percent ± SD (N. asteroides ATCC 19247; ATCC 19247, 16 h)	killing/CFU reduction in percent ± SD ([1]; ATCC 19296, 16 h)	killing/CFU reduction in percent ± SD (N. nova ATCC 33726)	growth of N. brasiliensis after incubation (in words) ([1]; 16 h)	CFU reduction (N. farcinica ATCC 3318; 16 μg/ml peptide alone, single assay (Figure 2))
C[C@H]1COc2c(N3CCN(C)CC3)c(F)cc3c(=O)c(C(=O)O)cn1c23 [Levofloxacin, reference compound]	dose-dependent activity	92.3 ± 3.8%	8 µg/mL	dose-dependent activity	92.6 ± 3.8%	8 µg/mL	dose-dependent activity	96.6 ± 2.2%	32 µg/mL	dose-dependent activity	>32 µg/mL						
CC[C@H](C)[C@H](N)C(=O)N[C@@H](CC(C)C)C(=O)N1CCC[C@H]1C(=O)N[C@@H](Cc1c[nH]c2ccccc12)C(=O)N[C@@H](CCCCN)C(=O)N[C@@H](Cc1c[nH]c2ccccc12)C(=O)N1CCC[C@H]1C(=O)N[C@@H](Cc1c[nH]c2ccccc12)C(=O)N[C@@H](Cc1c[nH]c2ccccc12)C(=O)N1CCC[C@H]1C(=O)N[C@@H](Cc1c[nH]c2ccccc12)C(=O)N[C@@H](CCCNC(=N)N)C(=O)N[C@@H](CCCNC(=N)N)C(N)=O [indolicidin]			16 µg/mL			64 µg/mL			64 µg/mL		8 µg/mL	96.7 ± 1.7%	99.1 ± 0.6%	92.9 ± 2.1%	90.5 ± 3.4%		
GIINTLQKYYCRVRGGRCAVLSCLPKEEQIGKCSTRGRKCCRRKK (disulfide 11-40, 18-33, 23-41 (inferred)) [hBD-3]			16 µg/mL	did not show antinocardial activity		>64 µg/mL	resistant		>64 µg/mL	more potent against N. nova than levofloxacin	16 µg/mL	92.5 ± 5.3%			95.2 ± 1.7%	stronger growth	
LAP: bovine β-defensin lingual antimicrobial peptide, synthesized and oxidatively folded (VRNSQSCRRNKGICVPIRCPGSMRQIGTCLGAQVKCCRRK; disulfide (positions not given here); UniProt Q28880 25-64, looked up)		92.9 ± 7.1%	16 µg/mL				resistant		>64 µg/mL							pronounced growth	
CC[C@H](C)[C@H](NC(=O)[C@H](CCCCN)NC(=O)[C@H](CCC(=O)O)NC(=O)[C@H](CCCCN)NC(=O)[C@H](CO)NC(=O)[C@H](CCCCN)NC(=O)[C@H](CCCNC(=N)N)NC(=O)[C@H](Cc1ccccc1)NC(=O)[C@H](Cc1ccccc1)NC(=O)[C@H](CC(=O)O)NC(=O)CNC(=O)[C@H](CC(C)C)NC(=O)[C@@H](N)CC(C)C)C(=O)NCC(=O)N[C@@H](CCCCN)C(=O)N[C@@H](CCC(=O)O)C(=O)N[C@@H](Cc1ccccc1)C(=O)N[C@@H](CCCCN)C(=O)N[C@@H](CCCNC(=N)N)C(=O)N[C@H](C(=O)N[C@H](C(=O)N[C@@H](CCC(N)=O)C(=O)N[C@@H](CCCNC(=N)N)C(=O)N[C@H](C(=O)N[C@@H](CCCCN)C(=O)N[C@@H](CC(=O)O)C(=O)N[C@@H](Cc1ccccc1)C(=O)N[C@@H](CC(C)C)C(=O)N[C@@H](CCCNC(=N)N)C(=O)N[C@@H](CC(N)=O)C(=O)N[C@@H](CC(C)C)C(=O)N[C@H](C(=O)N1CCC[C@H]1C(=O)N[C@@H](CCCNC(=N)N)C(=O)N[C@H](C(=O)N[C@@H](CCC(=O)O)C(=O)N[C@@H](CO)C(=O)O)[C@@H](C)O)C(C)C)[C@@H](C)CC)C(C)C)[C@@H](C)CC [LL-37]				did not show antinocardial activity		>64 µg/mL	resistant		>64 µg/mL	more potent against N. nova than levofloxacin	32 µg/mL					stronger growth	68.5%
CC[C@H](C)[C@@H]1NC(=O)CNC(=O)[C@H](CCCCN)NC(=O)[C@H](CC(N)=O)NC(=O)[C@H](CCCNC(=N)N)NC(=O)[C@H](C(C)C)NC(=O)[C@@H](NC(=O)[C@H](CO)NC(=O)[C@@H](NC(=O)[C@@H]2CCCN2C(=O)[C@@H](N)CC(N)=O)C(C)C)CSSC[C@@H]2NC(=O)[C@H](CCCCN)NC(=O)[C@H](C(C)C)NC(=O)[C@H](C)NC(=O)[C@H](CCCNC(=N)N)NC(=O)CNC(=O)[C@H](C(C)C)NC(=O)[C@@H]3CSSC[C@H](NC1=O)C(=O)N[C@@H](C(C)C)C(=O)N1CCC[C@H]1C(=O)N[C@@H]([C@@H](C)CC)C(=O)N[C@@H](CCCNC(=N)N)C(=O)N[C@@H](CSSC[C@@H](C(=O)N[C@@H](CCCNC(=N)N)C(=O)N[C@@H](CCCCN)C(=O)N[C@@H](CCCCN)C(=O)O)NC2=O)C(=O)N1CCC[C@H]1C(=O)NCC(=O)N[C@@H](CO)C(=O)N[C@@H](CCSC)C(=O)N[C@@H](CCCCN)C(=O)N[C@@H](CCC(N)=O)C(=O)N[C@@H]([C@@H](C)CC)C(=O)NCC(=O)N[C@@H]([C@@H](C)O)C(=O)N3 [TAP] (H-NPVSCVRNKGICVPIRCPGSMKQIGTCVGRAVKCCRKK-OH; disulfide 5-34, 12-27, 17-35 (inferred); N-terminus and C-terminus assumed)		94 ± 5.1%	32 µg/mL				resistant									pronounced growth	
